Test results published in ChEMBL document CHEMBL3507680, “University of Dundee, Gates Library screen for HepG2 cell viability”.

assay: Human HepG2 cell viability assay in 384 well format; assay type: toxicity, cell-based; set-up: dose 125 nL, time 70.5 hour; concentration not given beside the values; details: HepG2 cells, read-out: Inhibition

SMILES	cytotoxicity at 70.5 h
NC(=O)CCn1ccc(NC(=O)C2(c3ccc(F)cc3)CCC2)n1	1.99%
Cc1ccc(C)c(NC(=O)N2C[C@H](N(C)C)C[C@H]2CO)c1	-6.76%
Cc1n[nH]c(C2CN(C(=O)c3ccoc3C)CCO2)n1 (configuration not stated)	1.53%
CCOC(=O)N1CCN(c2nc(NC3CC3)c3ccccc3n2)CC1	3.06%
CC(O)c1cn(CC2CCN(C(=O)CN3CCCC3=O)CC2)nn1 (configuration not stated)	-10.1%
CN(Cc1ccco1)C(=O)C1=NN(C)C(=O)CC1	-3.82%
CC(C)NC(=O)[C@H]1C[C@@H]2CN(C(=O)NC(C)C)C[C@H]1O2	-10.3%
NC(=O)C(NCc1cccs1)c1ccccc1 (configuration not stated)	-9.69%
Cc1ccc(NC(=O)N2CC[C@@H](O)C2)c(-c2nc(C3CC3)no2)c1	-3.95%
NC(=O)Cn1cc(NC(=O)N2CCCCCC2)cn1	-11.1%
CC(C)c1nnc2n1CCN(CCCS(=O)(=O)c1ccccc1)C2	-13.8%
COCCC(=O)N1CCc2c(CNc3ncccn3)cncc2C1	-1.53%
COc1cccc(-c2cccc(-c3ccn(CC4COCCO4)n3)c2)n1 (configuration not stated)	13.1%
Cc1nc(CN)cc(N2CCC(O)(c3ccc(Cl)cc3)CC2)n1	-1.91%
CC1CN(c2ccc(CNC(=O)NCCO)cn2)CCO1 (configuration not stated)	-8.22%
CN(Cc1ccco1)C(=O)NCC(c1cccs1)N(C)C (configuration not stated)	-11.2%
COC(=O)Cn1c(=O)nc2n1C(=O)N(c1cccc(C)c1)C2	-7.13%
Cc1cnc(CNC(=O)CCCn2cnc3ccccc3c2=O)cn1	6.51%
Cn1cc(CN2C[C@@H]3CCCO[C@@H]3[C@H](NC(=O)CC3CC3)C2)cn1	11.8%
CC(=O)N1CCc2nc(N(C)C)nc(NCCc3ccccc3)c2CC1	-9.06%
COCCOc1ccc(NCc2cccc3cn[nH]c23)cn1	-7.69%
CC(C)Nc1nc(-c2ccccc2)nc2c1CCN(C(=O)CC#N)CC2	-3.92%
CCNc1ncc(C(=O)NCc2csc(-c3ncccn3)n2)cn1	3.46%

SMILES	cytotoxicity at 70.5 h
CC(C)c1n[nH]c(C2CN(Cc3nnc(C4CC4)o3)CCO2)n1 (configuration not stated)	24.8%
CCC(NC(=O)c1nn(C)cc1C(=O)O)c1ccc(C)cc1 (configuration not stated)	-5.71%
Cc1ccc(NC(=O)[C@@H]2C[C@H](C(=O)O)CN(Cc3sccc3C)C2)cn1	18.3%
O=C(c1cscn1)N1C[C@H](OCc2cccnc2)[C@H]2COC[C@H]21	-5.24%
Cc1c(C(C)NC(=O)C2CCCC2)cnn1C (configuration not stated)	36.2%
O=C(Nc1cccnc1)[C@H]1CN(Cc2cccs2)C[C@H]2OCC[C@@H]12	-10.8%
O[C@@H]1CN(Cc2cc(Cl)cc3cccnc23)C[C@@H]1O	-4.72%
COc1c(CNCC(O)COc2ccc3c(c2)OCO3)c(C)nn1C (configuration not stated)	14.9%
CC[C@@H](CO)NC(=O)c1coc(COc2ccc3sc(C)nc3c2)n1	-12.1%
COc1c(CNCC(O)c2ccccc2F)c(C(C)C)nn1C (configuration not stated)	21.4%
CCC1CCCCCN1C(=O)c1nnc2ccccc2c1N (configuration not stated)	-2.66%
CC(Cn1cncn1)NCc1n[nH]c2c1CCCCC2 (configuration not stated)	-10.2%
CN(C(=O)OC(C)(C)C)C1CCN(C(=O)c2cc(Cl)c[nH]2)C1 (configuration not stated)	13%
N#CC1(C(=O)N2CCOC(c3ccc(Cl)cc3)C2)CCCC1 (configuration not stated)	-15.9%
CCc1[nH]ncc1C(=O)N1CCN(c2nccc(OC)n2)CC1	-3.61%
CN(C)C(=O)C1CCc2nnc(CNC(=O)c3ccc(Cl)cc3Cl)n21 (configuration not stated)	2.11%
COC(=O)NCC(=O)N1CCC(c2cc3ccccc3[nH]2)CC1	-8.79%
Cc1nnc(CN(C)C2CCCN(Cc3noc(C4CC4)n3)C2)o1 (configuration not stated)	-8.76%
Cc1nccn1Cc1nnc(C2CCCN(c3ncccn3)C2)n1C (configuration not stated)	15.5%
Cn1cc(-c2noc(C3(C)CCOCC3)n2)cn1	11.7%
CC(=O)Nc1ccc(CNc2cccc(OCCF)c2)cc1	-5.76%
CN1CCC/C1=N\S(=O)(=O)c1ccc(NC(=O)c2ccsc2)cc1	-11.8%
CN1CCC(N(C)C(=O)c2cnn(-c3cc(F)ccc3F)c2N)CC1	-0.483%

SMILES	cytotoxicity at 70.5 h
CCN(CC(=O)NC)S(=O)(=O)N1CCCCC1	-7.25%
CCCN1CCC(NC(=O)c2csc(C)c2-c2ccc(C)cc2)CC1	-0.127%
O=C(c1cc2c(s1)CCC2)N1CCC(c2ccncc2)CC1	15.8%
CCCc1nnc(NC(=O)Cc2c(C)nc(C)[nH]c2=O)s1	-6.43%
Cc1ccc(F)cc1C(=O)N1CCN(S(C)(=O)=O)[C@@H](C)C1	-82.4%
CC1=C(C#N)C(=O)N(C)C(=O)/C1=C\C1=Cc2ccccc2OC1	8.21%
CN(C)CCO[C@H]1CN(C(=O)c2cscn2)[C@@H]2COC[C@H]12	-14.3%
Cc1nc(CN2CCCN(C(=O)CCc3ccco3)CC2)cs1	-12.4%
CC(NC(=O)NCCCOC1CCCCC1)c1nncn1C (configuration not stated)	-6.4%
Cc1ccc2c(c1)CN(C(=O)c1ccccc1F)C(CN(C)C)CO2 (configuration not stated)	-24.7%
Fc1ccc(Cc2cnc(C3CCCN3)cn2)cc1 (configuration not stated)	16.8%
Fc1ccc(-c2ccc(CNC3CCc4ncnn4C3)o2)cc1 (configuration not stated)	-9.49%
NC(=O)CN1C(=O)CO[C@H]2CN(Cc3ccc(C(F)(F)F)cc3)C[C@H]21	-1.74%
O=C(c1cc2c(s1)CCOC2)N1CCCCC1Cn1cccn1 (configuration not stated)	-7.81%
CN1CCCc2ccc(S(=O)(=O)NC(=O)C3CC=CC3)cc21	-3.77%
O=C(CNCc1ccccc1Cn1cccn1)Nc1cnccn1	-9.54%
CCOc1c(F)cccc1C(=O)N(C)CCc1ccccn1	36.5%
Cc1noc(CN(C)c2nc(-c3ccco3)nc3c2CCN(C)CC3)n1	-12.8%
Cc1nccn1-c1ccc(CNC(=O)c2ccc(O)nc2)cn1	-9.46%
Cc1cc(CN(C)C(=O)CN2CCCC2=O)no1	-15.2%
OCCNc1nccc(-c2cn3nccc3nc2C2CCCCC2)n1	-8.52%
CC1CCN(C(=O)Cn2nc(Br)nc2Br)CC1	-5.71%
O=C(c1ccc(OCC2CC2)nc1)N1CCCC(n2ccnc2)C1 (configuration not stated)	-14.6%

SMILES	cytotoxicity at 70.5 h
CC(C)CNC(=O)[C@H]1CCS(=O)(=O)[C@@H]2CN(Cc3cccc(Cl)c3)C[C@H]12	24.3%
Fc1ccc(CN2CCO[C@H]3[C@H](OCC4CCCC4)CC[C@@H]32)cc1	-9.77%
CC(C)N1CCC(CC(=O)NCCc2cc(O)ncn2)CC1	-11.7%
CN(C)C(=O)COc1ccccc1CN1CCOC2(CCCC2)C1	0.31%
CC1Cc2cc(-c3cncn3CC(=O)NC(C)(C)C)ccc2N1C (configuration not stated)	-7.08%
Cc1cccc2[nH]c(C3CCCN(Cc4ccccc4C(=O)O)C3)nc12 (configuration not stated)	8.18%
Cc1cccc(CC(=O)NC2CCN(C(=O)NC(C)(C)C)CC2)c1	12.2%
CC1CN(CC(=O)NCc2cccs2)CCN1c1nccs1 (configuration not stated)	-10.4%
Cc1cccn2c(=O)cc(CSCC(=O)Nc3nnc(C(C)C)s3)nc12	1.52%
COc1ncccc1CN1CCc2[nH]nc(C(=O)N(C)C)c2C1	-11.3%
O=C(COC1CCCC1)N1CCCC1c1noc(C2CC2)n1 (configuration not stated)	-9.93%
COc1ccccc1OC1CN(C(=O)CN(C)Cc2ccncc2)C1	-14.2%
O=C(C1CCOCC1)N1CCO[C@H]2[C@H](OCc3ccncc3)CC[C@@H]21	-9.92%
CCOCC1CC2(CCN(C(=O)CC3=CCCCC3)CC2)CO1 (configuration not stated)	1.88%
CCc1nnc2n1CCN(C(=O)c1ccc(C(F)(F)F)nc1C)C2	-15.4%
Cc1cc(-c2cnc(N3CCC(O)CC3)nc2C(C)C)on1	20.4%
Cc1cc(C)n(C2CN(C(=O)CN3C(=O)CSc4ccccc43)C2)n1	0.11%
Cc1ccccc1[C@@H]1CN(Cc2c(C)noc2C)C[C@H]1C(=O)O	21.7%
Cc1nnc(N2C[C@H]3OCC[C@H]3[C@H](C(=O)NCC3CC3)C2)s1	1.29%
Cc1cc(NCc2cccc(C#N)c2)ccc1C(N)=O	2.79%
CC(=O)N(Cc1ncc(C)o1)C1CCN(Cc2ccc(F)c(F)c2)C1 (configuration not stated)	-4.3%
CCN(CC)CCNC(=O)c1ccc(-n2ccc3ccccc32)s1	1.6%
CCC(=O)N(CCN(C)C)Cc1ccc(F)c(F)c1	-13.7%

SMILES	cytotoxicity at 70.5 h
Cc1nc(N2CCC3(CCCN(CCO)C3=O)C2)c2sccc2n1 (configuration not stated)	-7.31%
O=C(NCCC1CCCCO1)c1cc(COc2cncc(Cl)c2)on1 (configuration not stated)	14.4%
CC(C)N(C)Cc1cncc2c1CCN(C1CCOCC1)C2	-6.55%
CCN(CC)C1(Cc2cc(CC(C)C)on2)COC1	0.19%
CC(=O)N1CCC2(CC1)CNc1ccc(F)cc12	-5.28%
O=C(c1cccc(NCCO)c1)N1CCOCC1	6.48%
O=C(c1cccs1)N1CCc2c(nc(N3CCCC3)[nH]c2=O)C1	-0.974%
Cc1cccc(NC(=O)c2cncc(C3CCNCC3)n2)n1	-5.87%
CC(C)c1nc(CNC2CCCN(c3cccnn3)C2)no1 (configuration not stated)	21%
CC(C)C(Sc1nnnn1C1CC1)C(=O)NCc1cccnc1 (configuration not stated)	-7.01%
COCCOc1ccc(CNC2CCc3ncnn3C2)cc1OC (configuration not stated)	-9.82%
CCN1CC2(CC1=O)CN(C(=O)c1ccsc1)CCN(C(=O)N(C)C)C2 (configuration not stated)	3.77%
c1cncc(COCc2n[nH]c3c2CN(Cc2ccco2)C3)c1	-1.5%
CC1CCN(CC2(O)CCCN(Cc3cccc(F)c3F)C2=O)CC1 (configuration not stated)	1.43%
CC(=O)N1CCC(Cc2cnc(-c3c(C)n[nH]c3C)cn2)CC1	18.9%
CC(C)n1nc2c(cc1=O)CN(c1ncnc3ccsc13)CC2	13.9%
Cc1ccc(-c2nnc(CN3CCc4cnc(C)nc4C3)o2)cc1	3.5%
COC(=O)[C@@H]1C[C@@H](NC(=O)CN2C(=O)N(C)Cc3ccccc32)CN1C	-3.77%
CCc1nc2c(c(NC3CC3)n1)CCN(C(=O)Cc1nonc1C)CC2	-8.76%
Cc1cc(N2CCC(N(C)C(=O)c3ccccc3)CC2)nc(C)n1	-0.672%
